{"source": "PubChem BioAssay AID1259407", "about": "(Chemical Carcinogenesis Research Information System (CCRIS), 2018)", "test_system": "CCRIS mutagenicity, Ames/micronucleus/aberration tests", "assay": "CCRIS mutagenicity studies", "key": {"[1]": {"settings": "Test System: AMES SALMONELLA TYPHIMURIUM, Strain/Indicator: TA98, Metabolic Activation: NONE, Method: PREINCUBATION"}, "[2]": {"settings": "Test System: AMES SALMONELLA TYPHIMURIUM, Strain/Indicator: TA100, Metabolic Activation: NONE, Method: PREINCUBATION"}, "[3]": {"settings": "Test System: AMES SALMONELLA TYPHIMURIUM, Strain/Indicator: TA1535, Metabolic Activation: NONE, Method: PREINCUBATION"}, "[4]": {"settings": "Test System: AMES SALMONELLA TYPHIMURIUM, Strain/Indicator: TA97, Metabolic Activation: NONE, Method: STANDARD PLATE"}, "[5]": {"settings": "Test System: AMES SALMONELLA TYPHIMURIUM, Strain/Indicator: TA98, Metabolic Activation: NONE, Method: STANDARD PLATE"}, "[6]": {"settings": "Test System: AMES SALMONELLA TYPHIMURIUM, Strain/Indicator: TA100, Metabolic Activation: NONE, Method: STANDARD PLATE"}, "[7]": {"settings": "Test System: AMES SALMONELLA TYPHIMURIUM, Strain/Indicator: TA102, Metabolic Activation: NONE, Method: STANDARD PLATE"}, "[8]": {"settings": "Test System: AMES SALMONELLA TYPHIMURIUM, Strain/Indicator: TA98, Metabolic Activation: RAT, LIVER, S-9, AROCLOR 1254, Method: STANDARD PLATE"}, "[9]": {"settings": "Test System: AMES SALMONELLA TYPHIMURIUM, Strain/Indicator: TA100, Metabolic Activation: RAT, LIVER, S-9, AROCLOR 1254, Method: STANDARD PLATE"}}, "note": "The source made the active and inactive calls. The rule behind the calls is not given here.", "data": [{"smiles": "CCOC(C)(C)C", "values": [{"measurement": "mutagenic call", "setting": "Test System: AMES SALMONELLA TYPHIMURIUM, Strain/Indicator: TA97, Metabolic Activation: HAMSTER, LIVER, S-9, AROCLOR 1254 (10 OR 30%), Method: PREINCUBATION", "result": "inactive; negative"}, {"measurement": "mutagenic call", "setting": "Test System: AMES SALMONELLA TYPHIMURIUM, Strain/Indicator: TA97, Metabolic Activation: NONE, Method: PREINCUBATION", "result": "inactive; negative"}, {"measurement": "mutagenic call", "setting": "Test System: AMES SALMONELLA TYPHIMURIUM, Strain/Indicator: TA97, Metabolic Activation: RAT, LIVER, S-9, AROCLOR 1254 (10 OR 30%), Method: PREINCUBATION", "result": "inactive; negative"}, {"measurement": "mutagenic call", "setting": "Test System: AMES SALMONELLA TYPHIMURIUM, Strain/Indicator: TA98, Metabolic Activation: HAMSTER, LIVER, S-9, AROCLOR 1254 (10 OR 30%), Method: PREINCUBATION", "result": "inactive; negative"}, {"measurement": "mutagenic call", "setting": "[1]", "result": "inactive; negative"}, {"measurement": "mutagenic call", "setting": "Test System: AMES SALMONELLA TYPHIMURIUM, Strain/Indicator: TA98, Metabolic Activation: RAT, LIVER, S-9, AROCLOR 1254 (10 OR 30%), Method: PREINCUBATION", "result": "inactive; negative"}, {"measurement": "mutagenic call", "setting": "Test System: AMES SALMONELLA TYPHIMURIUM, Strain/Indicator: TA100, Metabolic Activation: HAMSTER, LIVER, S-9, AROCLOR 1254 (10 OR 30%), Method: PREINCUBATION", "result": "inactive; negative"}, {"measurement": "mutagenic call", "setting": "[2]", "result": "inactive; negative"}, {"measurement": "mutagenic call", "setting": "Test System: AMES SALMONELLA TYPHIMURIUM, Strain/Indicator: TA100, Metabolic Activation: RAT, LIVER, S-9, AROCLOR 1254 (10 OR 30%), Method: PREINCUBATION", "result": "inactive; negative"}, {"measurement": "mutagenic call", "setting": "Test System: AMES SALMONELLA TYPHIMURIUM, Strain/Indicator: TA1535, Metabolic Activation: HAMSTER, LIVER, S-9, AROCLOR 1254 (10 OR 30%), Method: PREINCUBATION", "result": "inactive; negative"}, {"measurement": "mutagenic call", "setting": "[3]", "result": "inactive; negative"}, {"measurement": "mutagenic call", "setting": "Test System: AMES SALMONELLA TYPHIMURIUM, Strain/Indicator: TA1535, Metabolic Activation: RAT, LIVER, S-9, AROCLOR 1254 (10 OR 30%), Method: PREINCUBATION", "result": "inactive; negative"}]}, {"smiles": "[Cl][Ti]([Cl])[Cl]", "values": [{"measurement": "mutagenic call", "setting": "[1]", "result": "inactive; negative"}, {"measurement": "mutagenic call", "setting": "Test System: AMES SALMONELLA TYPHIMURIUM, Strain/Indicator: TA98, Metabolic Activation: RAT LIVER S-9, PHENOBARBITAL AND BETA-NAPHTHOFLAVONE, Method: PREINCUBATION", "result": "inactive; negative"}, {"measurement": "mutagenic call", "setting": "[2]", "result": "inactive; negative"}, {"measurement": "mutagenic call", "setting": "Test System: AMES SALMONELLA TYPHIMURIUM, Strain/Indicator: TA100, Metabolic Activation: RAT LIVER S-9, PHENOBARBITAL AND BETA-NAPHTHOFLAVONE, Method: PREINCUBATION", "result": "active; positive"}, {"measurement": "mutagenic call", "setting": "[3]", "result": "inactive; negative"}, {"measurement": "mutagenic call", "setting": "Test System: AMES SALMONELLA TYPHIMURIUM, Strain/Indicator: TA1535, Metabolic Activation: RAT LIVER S-9, PHENOBARBITAL AND BETA-NAPHTHOFLAVONE, Method: PREINCUBATION", "result": "inactive; negative"}, {"measurement": "mutagenic call", "setting": "Test System: AMES SALMONELLA TYPHIMURIUM, Strain/Indicator: TA1537, Metabolic Activation: NONE, Method: PREINCUBATION", "result": "inactive; negative"}, {"measurement": "mutagenic call", "setting": "Test System: AMES SALMONELLA TYPHIMURIUM, Strain/Indicator: TA1537, Metabolic Activation: RAT LIVER S-9, PHENOBARBITAL AND BETA-NAPHTHOFLAVONE, Method: PREINCUBATION", "result": "inactive; negative"}, {"measurement": "mutagenic call", "setting": "Test System: AMES SALMONELLA TYPHIMURIUM, Strain/Indicator: TA1538, Metabolic Activation: NONE, Method: PREINCUBATION", "result": "inactive; negative"}, {"measurement": "mutagenic call", "setting": "Test System: AMES SALMONELLA TYPHIMURIUM, Strain/Indicator: TA1538, Metabolic Activation: RAT LIVER S-9, PHENOBARBITAL AND BETA-NAPHTHOFLAVONE, Method: PREINCUBATION", "result": "inactive; negative"}, {"measurement": "mutagenic call", "setting": "Test System: E.COLI, Strain/Indicator: WP2UVRA, Metabolic Activation: NONE, Method: PREINCUBATION", "result": "inactive; negative"}, {"measurement": "mutagenic call", "setting": "Test System: E.COLI, Strain/Indicator: WP2UVRA, Metabolic Activation: RAT LIVER S-9, PHENOBARBITAL AND BETA-NAPHTHOFLAVONE, Method: PREINCUBATION", "result": "inactive; negative"}]}, {"smiles": "CC(=O)O[C@H]1C(=O)[C@@]2(C)[C@H]([C@H](OC(=O)c3ccccc3)[C@]3(O)C[C@H](OC(=O)[C@H](O)[C@@H](NC(=O)c4ccccc4)c4ccccc4)C(C)=C1C3(C)C)[C@]1(OC(C)=O)CO[C@@H]1C[C@@H]2O", "values": [{"measurement": "mutagenic call", "setting": "End Point: IN VITRO CHROMOSOMAL ABERRATIONS, Test System: PERIPHERAL HUMAN BLOOD LYMPHOCYTES, Metabolic Activation: NONE", "result": "active; positive (ploidy changes)"}, {"measurement": "mutagenic call", "setting": "End Point: In vitro micronucleus, Test System: Human lymphoblastoid TK6 cells, Metabolic Activation: None", "result": "active; positive (p<0.001)"}, {"measurement": "mutagenic call", "setting": "End Point: In vivo micronucleus, Test System: Micronucleated, binucleated and multinucleated hepatocytes, Species: Mouse, Strain/Sex: ddY/Male, Route: Intravenous", "result": "active; positive for micronucleated, binucleated and multinucleated cells when agent adm"}, {"measurement": "mutagenic call", "setting": "[4]", "result": "inactive; negative"}, {"measurement": "mutagenic call", "setting": "Test System: AMES SALMONELLA TYPHIMURIUM, Strain/Indicator: TA97, Metabolic Activation: S-9, Method: STANDARD PLATE", "result": "inactive; negative"}, {"measurement": "mutagenic call", "setting": "[5]", "result": "inactive; negative"}, {"measurement": "mutagenic call", "setting": "Test System: AMES SALMONELLA TYPHIMURIUM, Strain/Indicator: TA98, Metabolic Activation: S-9, Method: STANDARD PLATE", "result": "inactive; negative"}, {"measurement": "mutagenic call", "setting": "[6]", "result": "inactive; negative"}, {"measurement": "mutagenic call", "setting": "Test System: AMES SALMONELLA TYPHIMURIUM, Strain/Indicator: TA100, Metabolic Activation: S-9, Method: STANDARD PLATE", "result": "inactive; negative"}, {"measurement": "mutagenic call", "setting": "[7]", "result": "inactive; negative"}, {"measurement": "mutagenic call", "setting": "Test System: AMES SALMONELLA TYPHIMURIUM, Strain/Indicator: TA102, Metabolic Activation: S-9, Method: STANDARD PLATE", "result": "inactive; negative"}, {"measurement": "mutagenic call", "setting": "Test System: Mouse lymphoma, Strain/Indicator: L5178Y (Tk+/Tk-), Metabolic Activation: None, Method: Microwell", "result": "active; positive"}]}, {"smiles": "O=S(=O)(c1cc(Cl)cc(Cl)c1O)c1cc(Cl)cc(Cl)c1O", "values": [{"measurement": "mutagenic call", "setting": "[4]", "result": "inactive; negative"}, {"measurement": "mutagenic call", "setting": "Test System: AMES SALMONELLA TYPHIMURIUM, Strain/Indicator: TA97, Metabolic Activation: RAT, LIVER, S-9, AROCLOR 1254, Method: STANDARD PLATE", "result": "inactive; negative"}, {"measurement": "mutagenic call", "setting": "[5]", "result": "inactive; negative"}, {"measurement": "mutagenic call", "setting": "[8]", "result": "inactive; negative"}, {"measurement": "mutagenic call", "setting": "[6]", "result": "inactive; negative"}, {"measurement": "mutagenic call", "setting": "[9]", "result": "inactive; negative"}, {"measurement": "mutagenic call", "setting": "[7]", "result": "inactive; negative"}, {"measurement": "mutagenic call", "setting": "Test System: AMES SALMONELLA TYPHIMURIUM, Strain/Indicator: TA102, Metabolic Activation: RAT, LIVER, S-9, AROCLOR 1254, Method: STANDARD PLATE", "result": "inactive; negative"}]}, {"smiles": "O=[N+]([O-])C1=Cc2cc3cc4ccccc4cc3c3cccc1c23", "values": [{"measurement": "mutagenic call", "setting": "[5]", "result": "active; positive"}, {"measurement": "mutagenic call", "setting": "[8]", "result": "active; positive"}, {"measurement": "mutagenic call", "setting": "[6]", "result": "inactive; negative"}, {"measurement": "mutagenic call", "setting": "[9]", "result": "inactive; negative"}, {"measurement": "mutagenic call", "setting": "Test System: AMES SALMONELLA TYPHIMURIUM, Strain/Indicator: TA1535, Metabolic Activation: NONE, Method: STANDARD PLATE", "result": "inactive; negative"}, {"measurement": "mutagenic call", "setting": "Test System: AMES SALMONELLA TYPHIMURIUM, Strain/Indicator: TA1535, Metabolic Activation: RAT, LIVER, S-9, AROCLOR 1254, Method: STANDARD PLATE", "result": "inactive; negative"}, {"measurement": "mutagenic call", "setting": "Test System: AMES SALMONELLA TYPHIMURIUM, Strain/Indicator: TA1537, Metabolic Activation: NONE, Method: STANDARD PLATE", "result": "active; positive"}, {"measurement": "mutagenic call", "setting": "Test System: AMES SALMONELLA TYPHIMURIUM, Strain/Indicator: TA1537, Metabolic Activation: RAT, LIVER, S-9, AROCLOR 1254, Method: STANDARD PLATE", "result": "active; positive"}, {"measurement": "mutagenic call", "setting": "Test System: AMES SALMONELLA TYPHIMURIUM, Strain/Indicator: TA1538, Metabolic Activation: NONE, Method: STANDARD PLATE", "result": "active; positive"}, {"measurement": "mutagenic call", "setting": "Test System: AMES SALMONELLA TYPHIMURIUM, Strain/Indicator: TA1538, Metabolic Activation: RAT, LIVER, S-9, AROCLOR 1254, Method: STANDARD PLATE", "result": "inactive; negative"}]}]}
